Laboratory results: patent US12227482B2, “Compounds and compositions for the treatment of cancer” (The Regents of the University of California, priority 2016, dated 2025)

How the values were obtained:
Assay type in all cases: cell-based
MelJuSo cells = assay: Cell viability (CellTiter-Glo ATP content) in MelJuSo cells; conditions: Homo sapiens, MEL-JUSO, 72 hours treatment, cell survival by CellTiter-Glo, 2% fetal bovine serum
How it was run: (§1)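 Cells plated at 5,000 per well in antibiotic-free RPMI with 2% FBS, treated next day in triplicate with increasing compound doses (final DMSO 0.5%) for 72 hours. Viability read as ATP content by CellTiter-Glo luminescence; percent survival relative to vehicle control set as 100%.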

A549 cells = assay: Cell viability (CellTiter-Glo ATP content) in A549 cells; conditions: Homo sapiens, A549, 72 h, 72 hours treatment, cell survival by CellTiter-Glo, 2% fetal bovine serum
How it was run: as §1

LOX cells = assay: Cell viability (CellTiter-Glo ATP content) in LOX cells; conditions: LOX, 72 h, 72 hours treatment, cell survival by CellTiter-Glo, 2% fetal bovine serum
How it was run: as §1

| SMILES | IC50 (MelJuSo cells) | IC50 (A549 cells) | IC50 (LOX cells) |
| --- | --- | --- | --- |
| CCCCC1C(c2ccc(F)cc2)=NN(c2ccccc2)C1(C)C(=O)NCc1cc(Cl)cc(Cl)c1 (stereo not drawn) [Compound 41, 4-butyl-N-(3,5-dichlorobenzyl)-3-(4-fluorophenyl)-5-methyl-1-phenyl-4,5-dihydro-1H-pyrazole-5-carboxamide] | 1 to 2 µM | > 2 µM | > 2 µM |
| CC(C)(CO)CCCNC(=O)C1(C)C(c2ccc(Cl)o2)C(c2ccc(F)cc2F)=NN1c1ccc(F)cc1F (stereo not drawn) [Compound 133, 4-(5-chlorofuran-2-yl)-1,3-bis(2,4-difluorophenyl)-N-(5-hydroxy-4,4-dimethylpentyl)-5-methyl-4,5-dihydro-1H-pyrazole-5-carboxamide] | < 0.25 µM | < 0.25 µM | < 0.25 µM |
| COC(=O)CNC(=O)C1(C)C(c2ccsc2)C(c2ccc(F)cc2F)=NN1c1ccc(F)cc1F (stereo not drawn) [Compound 119, methyl 2-(1,3-bis(2,4-difluorophenyl)-5-methyl-4-(thiophen-3-yl)-4,5-dihydro-1H-pyrazole-5-carboxamido)acetate] | < 0.25 µM | 0.5 to 1 µM | 0.25 to 0.5 µM |
| CCCCC1C(c2ccc(F)cc2F)=NN(c2ccc(F)cc2F)C1(C)C(=O)NCCCC(C)(C)CO (stereo not drawn) [Compound 89, 4-butyl-1,3-bis(2,4-difluorophenyl)-N-(5-hydroxy-4,4-dimethylpentyl)-5-methyl-4,5-dihydro-1H-pyrazole-5-carboxamide] | 0.5 to 1 µM | 1 to 2 µM | 0.5 to 1 µM |
| CCCCC1C(c2ccc(F)cc2)=NN(c2ccccc2)C1(C)C(=O)N(C)Cc1cc(OC)cc(OC)c1 (stereo not drawn) [Compound 52, 4-butyl-N-(3,5-dimethoxybenzyl)-3-(4-fluorophenyl)-N,5-dimethyl-1-phenyl-4,5-dihydro-1H-pyrazole-5-carboxamide] | > 2 µM | > 2 µM | > 2 µM |
| COC(=O)CNC(=O)C1(C)C(c2cccs2)C(c2ccc(F)cc2)=NN1c1ccc(F)cc1F (stereo not drawn) [Compound 103, methyl 2-(1-(2,4-difluorophenyl)-3-(4-fluorophenyl)-5-methyl-4-(thiophen-2-yl)-4,5-dihydro-1H-pyrazole-5-carboxamido)acetate] | < 0.25 µM | 0.5 to 1 µM | 0.5 to 1 µM |
| CCCCC1C(c2ccc(F)cc2)=NN(c2ccc(F)c(Cl)c2)C1(C)C(=O)NCCCCC(C)(C)O (stereo not drawn) [Compound 11, 4-butyl-1-(3-chloro-4-fluorophenyl)-3-(4-fluorophenyl)-N-(5-hydroxy-5-methylhexyl)-5-methyl-4,5-dihydro-1H-pyrazole-5-carboxamide] | 1 to 2 µM | > 2 µM | > 2 µM |
| CCCCC1C(c2ccc(F)cc2)=NN(c2ccc(F)cc2F)C1(C)C(=O)NCCCN(C)C (stereo not drawn) [Compound 24, 4-butyl-1-(2,4-difluorophenyl)-N-(3-(dimethylamino)propyl)-3-(4-fluorophenyl)-5-methyl-4,5-dihydro-1H-pyrazole-5-carboxamide] | > 2 µM | > 2 µM | > 2 µM |
| CCCCC1C(c2ccc(F)cc2)=NN(c2cccc(C)c2)C1(C)C(=O)NCCCC(C)(C)CO (stereo not drawn) [Compound 61, 4-butyl-3-(4-fluorophenyl)-N-(5-hydroxy-4,4-dimethylpentyl)-5-methyl-1-m-tolyl-4,5-dihydro-1H-pyrazole-5-carboxamide] | 0.5 to 1 µM | > 2 µM | 1 to 2 µM |
| CC1(C(=O)NCC(=O)N2CCS(=O)(=O)CC2)C(c2cccs2)C(c2ccc(F)cc2)=NN1c1ccc(F)cc1F (stereo not drawn) [Compound 105, 1-(2,4-difluorophenyl)-3-(4-fluorophenyl)-5-methyl-N-(1,1-dioxo-1-thiomorpholine-2-oxoethyl)-4-(thiophen-2-yl)-4,5-dihydro-1H-pyrazole-5-carboxamide] | > 2 µM | > 2 µM | > 2 µM |
| CCCCC1C(c2ccc(F)cc2)=NN(c2ccc(F)cc2F)C1(C)C(=O)NCCO (stereo not drawn) [Compound 84, 4-butyl-1-(2,4-difluorophenyl)-3-(4-fluorophenyl)-N-(2-hydroxyethyl)-5-methyl-4,5-dihydro-1H-pyrazole-5-carboxamide] | 0.5 to 1 µM | 1 to 2 µM | 1 to 2 µM |
| CCCCC1C(c2ccc(F)cc2)=NN(c2ccccc2)C1(C)C(=O)NCCS(C)(=O)=O (stereo not drawn) [Compound 79, 4-butyl-3-(4-fluorophenyl)-5-methyl-N-(2-(methylsulfonyl)ethyl)-1-phenyl-4,5-dihydro-1H-pyrazole-5-carboxamide] | > 2 µM | > 2 µM | > 2 µM |
| CCCCC1C(c2ccc(Cl)cc2F)=NN(c2ccccc2)C1(C)C(=O)NCCOC (stereo not drawn) [Compound 54, 4-butyl-3-(4-chloro-2-fluorophenyl)-N-(2-methoxyethyl)-5-methyl-1-phenyl-4,5-dihydro-1H-pyrazole-5-carboxamide] | > 2 µM | > 2 µM | > 2 µM |
| CCCCC1C(c2ccc(F)cc2)=NN(c2ccccc2)C1(C)C(=O)NCC(C)(C)CN(C)C (stereo not drawn) [Compound 50, 4-butyl-N-(3-(dimethylamino)-2,2-dimethylpropyl)-3-(4-fluorophenyl)-5-methyl-1-phenyl-4,5-dihydro-1H-pyrazole-5-carboxamide] | > 2 µM | > 2 µM | > 2 µM |
| CCCCC1C(c2ccc(F)cc2)=NN(c2ccccc2)C1(C)C(=O)NCCc1ccc(O)cc1 (stereo not drawn) [Compound 38, 4-butyl-3-(4-fluorophenyl)-N-(4-hydroxyphenethyl)-5-methyl-1-phenyl-4,5-dihydro-1H-pyrazole-5-carboxamide] | 0.5 to 1 µM | > 2 µM | > 2 µM |
| COCCNC(=O)C1(C)C(c2cccs2)C(c2ccc(F)cc2)=NN1c1ccc(C)cc1 (stereo not drawn) [Compound 63, 3-(4-fluorophenyl)-N-(2-methoxyethyl)-5-methyl-4-(thiophen-2-yl)-1-p-tolyl-4,5-dihydro-1H-pyrazole-5-carboxamide] | < 0.25 µM | 0.25 to 0.5 µM | < 0.25 µM |
| CN1CCOC(CNC(=O)C2(C)C(c3ccc(Cl)o3)C(c3ccc(F)cc3F)=NN2c2ccc(F)cc2F)C1 (stereo not drawn) [Compound 135, 4-(5-chlorofuran-2-yl)-1,3-bis(2,4-difluorophenyl)-5-methyl-N-((4-methylmorpholin-2-yl)methyl)-4,5-dihydro-1H-pyrazole-5-carboxamide] | < 0.25 µM | < 0.25 µM | < 0.25 µM |
| CC(C)(CO)CCCNC(=O)C1(C)C(c2ccc(Cl)s2)C(c2ccc(F)cc2)=NN1c1ccc(F)cc1F (stereo not drawn) [Compound 101, 4-(5-chlorothiophen-2-yl)-1-(2,4-difluorophenyl)-3-(4-fluorophenyl)-N-(5-hydroxy-4,4-dimethylpentyl)-5-methyl-4,5-dihydro-1H-pyrazole-5-carboxamide] | 0.5 to 1 µM | > 2 µM | > 2 µM |
| CC1(C(=O)NCCCN2CCOCC2)C(c2cccs2)C(c2ccc(F)cc2)=NN1c1ccc(F)cc1F (stereo not drawn) [Compound 122, 1-(2,4-difluorophenyl)-3-(4-fluorophenyl)-5-methyl-N-(3-morpholinopropyl)-4-(thiophen-2-yl)-4,5-dihydro-1H-pyrazole-5-carboxamide] | > 2 µM | > 2 µM | > 2 µM |
| CCCCC1C(c2ccc(F)cc2)=NN(c2ccccc2)C1(C)C(=O)NCCF (stereo not drawn) [Compound 70, 4-butyl-N-(2-fluoroethyl)-3-(4-fluorophenyl)-5-methyl-1-phenyl-4,5-dihydro-1H-pyrazole-5-carboxamide] | 0.5 to 1 µM | > 2 µM | 1 to 2 µM |
| CC(C)(C)OC(=O)N1CCOC(CNC(=O)C2(C)C(c3ccc(Cl)o3)C(c3ccc(F)cc3F)=NN2c2ccc(F)cc2F)C1 (stereo not drawn) [Compound 138, tert-butyl 2-((4-(5-chlorofuran-2-yl)-1,3-bis(2,4-difluorophenyl)-5-methyl-4,5-dihydro-1H-pyrazole-5-carboxamido)methyl)morpholine-4-carboxylate] | > 2 µM | > 2 µM | > 2 µM |
| CCCCC1C(c2ccc(F)cc2)=NN(c2ccc(F)cc2F)C1(C)C(=O)NCCCCC(C)(C)O (stereo not drawn) [Compound 4, 4-butyl-1-(2,4-difluorophenyl)-3-(4-fluorophenyl)-N-(5-hydroxy-5-methylhexyl)-5-methyl-4,5-dihydro-1H-pyrazole-5-carboxamide] | 0.5 to 1 µM | 0.5 to 1 µM | 0.5 to 1 µM |
| CCCCC1C(c2ccc(F)cc2)=NN(c2ccc(C)cc2)C1(C)C(=O)NCCOC (stereo not drawn) [Compound 59, 4-butyl-3-(4-fluorophenyl)-N-(2-methoxyethyl)-5-methyl-1-p-tolyl-4,5-dihydro-1H-pyrazole-5-carboxamide] | < 0.25 µM | 0.25 to 0.5 µM | < 0.25 µM |
| CCCCC1C(c2ccc(F)cc2)=NN(c2ccc(F)cc2F)C1(C)C(=O)NCC(=O)O (stereo not drawn) [Compound 82, 2-(4-butyl-1-(2,4-difluorophenyl)-3-(4-fluorophenyl)-5-methyl-4,5-dihydro-1H-pyrazole-5-carboxamido)acetic acid] | > 2 µM | > 2 µM | > 2 µM |
| CCCCC1C(c2ccc(F)cc2)=NN(c2ccccc2)C1(C)C(=O)NCC(C)(C)C (stereo not drawn) [Compound 72, 4-butyl-3-(4-fluorophenyl)-5-methyl-N-neopentyl-1-phenyl-4,5-dihydro-1H-pyrazole-5-carboxamide] | > 2 µM | > 2 µM | > 2 µM |
| CCCCC1C(c2ccc(F)cc2)=NN(c2cccc(C)c2)C1(C)C(=O)NCCOC (stereo not drawn) [Compound 55, 4-butyl-3-(4-fluorophenyl)-N-(2-methoxyethyl)-5-methyl-1-m-tolyl-4,5-dihydro-1H-pyrazole-5-carboxamide] | < 0.25 µM | 0.25 to 0.5 µM | < 0.25 µM |
